Results taken from publication PMC10714399, “Open Source Antibiotics: Simple Diarylimidazoles Are Potent against Methicillin-Resistant Staphylococcus aureus” (ACS Infectious Diseases, 2023).
≈ marks a conversion by molar mass, not a printed value. Entries after “also recorded” stand apart in the source; their conditions may differ. Where two headings read alike, the source gives them in different places.

Key:
[1] = LogD7.4 (Chrom Log D); assay type: physicochemical; details: chromatographic system (Chrom Log D); pH 7.4, NEU; read-out: LogD 7.4 (NEU)
Description: To guide our initial SAR exploration work, we obtained liver microsomal intrinsic clearance data for 5 of the 18 compounds assayed by CO-ADD (Supporting Information - CDCO Report and Supporting Information - Biology). We then acquired intrinsic clearance (CLint), plasma protein binding (PPB), and solubility data on further compounds throughout the SAR campaign (Supporting Information - Biology, Tables S3 and S4). […] The more polar compounds (lower LogD) had reduced PPB and were more metabolically stable.
Table S4. ADME and Pharmacokinetics: compounds only appearing in the Supplementary […]
MRSA Aqueous HLM CLint Rat Hep CLint
Cmpd MIC Solubility Human PPB (%) (µL/min/mg (µL/min/10x6 LogD7.4
(µg/mL) (µM) protein) cells)
ADME and toxicity for compounds were measured according to procedures outlined in the manuscript submitted in parallel to this one;2 other procedures were used for those compounds analysed by Monash University (in vitro ADME) or UCL (toxicity), both described in the main

[2] = Aqueous solubility; assay type: physicochemical; details: NEU; for solubility: thermodynamic from solid, read-out: Aqueous Solubility (NEU)
[3] = system: Enterococcus faecalis ATCC 51299 (vanA-positive; vancomycin-resistant); assay: In vitro antibacterial activity, MIC (UCL), VRE; assay type: cell-based
Method in brief: (§1)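 Broth microdilution MIC in isosensitest broth; inoculum from overnight tryptone soya agar culture suspended in PBS to A600 0.1 (~1 × 10^8 CFU/mL), then diluted 1:100. Compounds tested as 2-fold series from 32 to 0.03 μg/mL, DMSO at most 2%; vancomycin as quality control.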

[4] = system: Staphylococcus aureus NCTC 13373 (mecA-positive; methicillin-resistant); assay: In vitro antibacterial activity, MIC (UCL School of Pharmacy assay), MRSA; assay type: cell-based; details: for MIC: Staphylococcus aureus
Method in brief: as §1

[5] = HEK293 toxicity, 96-well dose-response (UCL; MTT or resazurin, with or without recovery); assay type: cell-based, human; details: human, HEK293 cells; read-out: HEK293 CC50
Procedure: (§2) The importance of balancing potency vs MRSA and cytotoxicity led us to examine a subset of compounds more thoroughly for toxicity against human embryonic kidney cell line HEK293. […] Dmax is a parameter that quantifies toxicity at the highest tested concentration (32 μg/mL for all compounds), calculated as reciprocal percentage of viable cells (100 – viability%), where cells either were allowed to recover or viability was measured immediately after treatment. […] Our efforts focused on trying to replicate the original toxicity experiments (by CO-ADD) with tamoxifen using a protocol modified for use with 96-well plates. Given the variability of protocols and results in the literature,[28] it was important to compare with a standard protocol we have reliably used in our own laboratories.[29]−[33] […] Truly “non-toxic” compounds might be expected to show Dmax < 50% for all experiment variations, e.g., 861. […] A large spread of Dmax values comparing recovery and non-recovery conditions larger than 20% is perhaps indicative of a mechanism of toxicity that persists beyond exposure, i.e., cytotoxic compounds that continue to induce toxicity as cells recover and restart dividing, for example, compounds 865, 870, 871, 980, and 981. […] This variability could be driven by interference of the compounds with the fluorescence readout or resorufin build-up as previously described.[27]
(§3) HEK293 cells (ATCC, UK) at passage 32 were a kind gift from Dr. Ben Allsop from the Translational Research Office at University College London. Cells were tested for mycoplasma using a MycoAlert Detection Kit (Lonza, Switzerland) as per manufacturer instructions, frozen stocks were stored in liquid nitrogen, and cells were re-tested whenever a new aliquot was thawed.
(§4) Cells were maintained in DMEM (Sigma-Aldrich, UK) supplemented with 10% heat-inactivated FBS (Sigma-Aldrich, UK), 1% GlutaMax (ThermoFisher, UK), and 1% sodium pyruvate (Lonza, UK) without antibiotics in an incubator at 37 °C and 5% CO2. Media was changed every 2 days, and cells were passaged every 3–4 days at a subcultivation ratio of 1:10, by detaching the cells with phenol-free TrypLE Express (ThermoFisher, UK), after washing with HBSS Ca^2+/Mg^2+ (ThermoFisher, UK). Up to 55 passages were used throughout the experiments.
(§5) (a) Cell seeding: At subculture, a dilute solution of cells was counted using Trypan Blue (Sigma-Aldrich, UK) and a hemocytometer. Cells were further diluted to 7000 or 50 000 cells/mL for experiments.
(§6) For recovery experiments, 700 cells (100 μL) were seeded in 96-well plates and incubated for 48 h while cells reached exponential phase.
(§7) For non-recovery experiments, 5000 cells (100 μL) were seeded in 96-well plates and incubated for 48 h while cells reached confluence. This is the same number of cells as per the CO-ADD protocol where 384-well plates were used, but we extended the growth time to 48 h to produce a similar confluency.
(§8) Stock solutions were diluted 100 times (to 1% DMSO) to 32 μg/mL in full medium (vortexed briefly) and then serially diluted using a digital pipet (Explorer, Eppendorf, Germany) at a dilution factor of 2 to a final concentration of […].
(§9) (c) Dosing experiments: At the specified time after seeding, media was removed from cells, cells were washed with HBSS Ca^2+/Mg^2+ (100 μL), and 100 μL of diluted compounds were added as per Supporting Information - Biology, Figure S4, and incubated for 24 h.
(§10) After treatment, solutions were removed, and cells were washed with HBSS Ca^2+/Mg^2+. For non-recovery experiments, viability was determined immediately as described below.
(§11) For recovery experiments, fresh media was added to plates (100 μL) and cells were returned to the incubator for another 72 h, after which viability was recorded as described below.
(§12) i. MTT assay: 3-[4,5-Dimethylthiazol-2-yl]-2,5-diphenyltetrazolium bromide (MTT) (Sigma-Aldrich, UK) was dissolved in sterile PBS at 5 mg/mL with sonication (20 min), protected from light. […]

[6] = Human liver microsome intrinsic clearance; assay type: in vitro ADME; details: human liver microsomes, NEU; for microsomal CLint: read-out: HLM CLint (NEU)
[7] = Human plasma protein binding (PPB); assay type: in vitro ADME; details: human, plasma, human plasma, NEU; read-out: Human PPB (NEU) (converted)
[8] = Rat hepatocyte intrinsic clearance; assay type: in vitro ADME; details: rat hepatocytes, NEU; for hepatocyte CLint: read-out: Rat Hep CLint (NEU)
[9] = system: S. aureus ATCC 25923 (methicillin-susceptible); assay: In vitro antibacterial activity, MIC (UCL), MSSA; assay type: cell-based, Staphylococcus aureus; details: Staphylococcus aureus; read-out: MSSA MIC (UCL)
Method in brief: as §1

[10] = system: HEK293 cells; assay: HEK293 toxicity, 96-well dose-response (UCL; MTT or resazurin, with or without recovery); assay type: cell-based, human
Procedure: as §2, §3, §4, §5, §6, §7, §8, §9, §10, §11, §12

Row | Compound | chromatographic logD [1] | solubility [2] [µM] | MIC ([3]; read-out: VRE MIC (UCL)) [µg/mL] | MIC ([4]; UCL, read-out: MRSA MIC (UCL)) [µg/mL] | microsomal CLint [6] [µL/min/mg] | fraction unbound [7] | hepatocyte CLint [8] [µL/min/1e6 cells] | Aqueous Solubility (NEU) [2] [µM] | MIC [9] [µg/mL] | HLM CLint (NEU) [6] [uL/min/mg protein] | Rat Hep CLint (NEU) [8] [uL/min/10x6 cells] | MIC ([3]; read-out: VRE MIC) [µg/mL] | MIC ([4]; read-out: MRSA MIC) [µg/mL] | CC50 at 24 h [5] [µg/mL] | activity against MRSA, in words [4] | HEK293 toxicity classification, in words [10] | Dmax (100 – viability%) ([10]; at highest tested concentration 32 μg/mL, all experiment variations) [%] | toxicity in the acute exposure by MTT ([10]; no recovery, MTT)
1 | c1cncc(-c2nc3n(c2-c2ccc4occc4c2)CCC3)c1 [OSA_000861] | 3.2 | 344 (≈ 104 µg/mL) | > 32 | > 32 | 35.5 | 0.015 | 40.8 |  |  |  |  |  |  | > 32 |  |  |  | 
2 | c1cc(-c2nc3n(c2-c2ccc4occc4c2)CCC3)ccn1 [OSA_000862] | 3.2 | 89 (≈ 26.8 µg/mL) | > 32 | > 32 | 36.8 | 0.017 | 44.5 |  |  |  |  |  |  | > 32 |  |  |  | 
3 | Cc1ccc(-c2c(-c3ccccn3)nc3n2CCC3)cc1 [OSA_000865] |  |  | 16 (≈ 58.1 µM) | 4 (≈ 14.5 µM) |  | 0.084 |  | 32 | 1 (≈ 3.63 µM) | 82 | 49.2 |  |  | 2.1 (≈ 7.63 µM) |  |  |  | 
4 | c1ccc(-c2nc3n(c2-c2ccc4occc4c2)CCC3)cc1 [OSA_000869] | 4.2 | 21 (≈ 6.31 µg/mL) | > 32 | > 32 | 224 | 0.0031 | 34.5 |  |  |  |  |  |  | 13.7 (≈ 45.6 µM) |  |  |  | 
5 | c1ccc(-c2c(-c3ccccn3)nc3n2CCC3)cc1 [OSA_000870] |  | 179 (≈ 46.8 µg/mL) | > 32 | 32 (≈ 122 µM) |  | 0.15 |  |  |  | 64 | 25.9 |  |  | 3.6 (≈ 13.8 µM) |  |  |  | 

Now from value to molecule, other results behind:

Row | chromatographic logD [1] | solubility [2] [µM] | MIC ([3]; read-out: VRE MIC (UCL)) [µg/mL] | MIC ([4]; UCL, read-out: MRSA MIC (UCL)) [µg/mL] | microsomal CLint [6] [µL/min/mg] | fraction unbound [7] | hepatocyte CLint [8] [µL/min/1e6 cells] | Aqueous Solubility (NEU) [2] [µM] | MIC [9] [µg/mL] | HLM CLint (NEU) [6] [uL/min/mg protein] | Rat Hep CLint (NEU) [8] [uL/min/10x6 cells] | MIC ([3]; read-out: VRE MIC) [µg/mL] | MIC ([4]; read-out: MRSA MIC) [µg/mL] | Compound | CC50 at 24 h [5] [µg/mL] | activity against MRSA, in words [4] | HEK293 toxicity classification, in words [10] | Dmax (100 – viability%) ([10]; at highest tested concentration 32 μg/mL, all experiment variations) [%] | toxicity in the acute exposure by MTT ([10]; no recovery, MTT)
6 | 3.3 | 6 (≈ 1.96 µg/mL) | 8 (≈ 24.4 µM) | 4 (≈ 12.2 µM) | 105 | 0.0074 | > 300 |  |  |  |  |  |  | c1ccc(-c2nc3ccccn3c2-c2ccc3sccc3c2)nc1 [OSA_000871] | 5.5 (≈ 16.8 µM) |  |  |  | 
7 |  |  |  |  |  |  |  |  |  |  |  | > 32 | > 32 | c1cncc(-c2nc3n(c2-c2ccc4occc4c2)CCC3)c1 [compound 861] |  | inactive | least toxic | < 50 | 
8 |  |  |  |  |  |  |  |  |  |  |  | > 32 | > 32 | c1cc(-c2nc3n(c2-c2ccc4occc4c2)CCC3)ccn1 [compound 862] |  | inactive | least toxic; also recorded: non-toxic |  | more than 50%
